According to PMC8802628, “Selective activation of PFKL suppresses the phagocytic oxidative burst” (Cell, 2021):

Molecular target: T1, PFKL (Homo sapiens, UniProt P17858)
T1 construct: endogenous in cells; host or cells: THP-1 cell lysate
T1 sequence (P17858 2-780 limits assumed): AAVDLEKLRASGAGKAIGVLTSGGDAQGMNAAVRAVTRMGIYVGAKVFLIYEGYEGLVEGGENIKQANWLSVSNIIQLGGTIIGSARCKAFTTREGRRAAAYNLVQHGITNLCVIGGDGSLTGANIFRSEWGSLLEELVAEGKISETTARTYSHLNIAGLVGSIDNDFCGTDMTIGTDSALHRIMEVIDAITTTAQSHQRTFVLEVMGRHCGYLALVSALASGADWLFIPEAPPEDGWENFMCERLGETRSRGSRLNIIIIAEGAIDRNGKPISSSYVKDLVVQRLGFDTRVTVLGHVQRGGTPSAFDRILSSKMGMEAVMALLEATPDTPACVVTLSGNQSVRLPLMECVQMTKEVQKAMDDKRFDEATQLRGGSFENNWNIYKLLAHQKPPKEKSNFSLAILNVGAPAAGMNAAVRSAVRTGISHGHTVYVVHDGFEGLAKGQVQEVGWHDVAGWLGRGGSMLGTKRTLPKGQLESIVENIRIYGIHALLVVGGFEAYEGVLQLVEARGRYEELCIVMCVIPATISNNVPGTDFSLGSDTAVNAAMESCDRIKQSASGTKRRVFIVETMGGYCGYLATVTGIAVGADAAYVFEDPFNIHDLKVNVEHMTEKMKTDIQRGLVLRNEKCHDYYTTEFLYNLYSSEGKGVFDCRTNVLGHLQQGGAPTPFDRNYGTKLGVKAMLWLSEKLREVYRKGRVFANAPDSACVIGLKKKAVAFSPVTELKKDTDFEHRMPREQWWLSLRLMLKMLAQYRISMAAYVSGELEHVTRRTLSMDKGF
Assay: Thermal proteome profiling (TPP) of neutrophil lysates
Format: binding
Conditions: 10 μM NA-11, 37°C to 65°C
Protocol: Neutrophils (3 × 10^7) were treated with 50 nM PMA for 20 min. Cell were washed twice in D-PBS, resuspended in KB buffer (25 mM Tris-HCL pH 7.5, 1 mM DTT, 10 mM MgCl2) and frozen in liquid nitrogen. Lysates were prepared by 5-7 freeze-thaw cycles in KB buffer. Protein concentration was determined via Bradford assay and lysates were incubated on ice for 30 min with either 10 μM NA-11 or DMSO vehicle. Samples were analyzed in two formats: (1) classical thermal proteome profiling (TPP) with full melting curves using 16-plex TMT labeling (8 temperatures between 37-65°C), and (2) Proteome Integral Solubility Alteration (PISA) assay with aggregated protein abundance from a defined temperature range using 10-plex TMT labeling (Five replicates 44-58°C). […]
For the classical TPP, quantitative data from each temperature were used to generate a thermal titration curve and calculate a melting point. PSM level quantitation was log2 transformed and summarized to protein level by aggregating all PSMs from the same primary Uniprot reference, and systematic variation between the treatments was normalized at each temperature. […] A quality score is calculated for each protein by evaluating R squares, curve slopes and similarity in slopes between the two fitted curves. […] Fold changes and p values were calculated between pre-defined treatment groups by the MSstats package. […]

CC(=O)Nc1ccc2c(c1)OCc1cc(-c3ccccc3C#CCCCO)nn1C2 [NA-11]
thermal shift in melting temperature (Tm) of PFKL: 4 °C
